Assay results taken from US4016042A, “Substrate for the quantitative determination of enzymes” (Pentapharm A.G., priority 1974, dated 1977).
Structures can show the parent of a compound that is named as a salt. Residues, ends and D or L forms follow the SMILES beside them. *: point of attachment. Hydrocinnamoyl = O=C(CCc1ccccc1)*; pNA = O=[N+]([O-])c1ccc(N*)cc1; Bz = O=C(c1ccccc1)*

How the values were obtained:
Format in all cases: biochemical
thrombin = thrombin (Homo sapiens, UniProt P00734); test: Km and vmax determination with substrate (Lineweaver-Burk), thrombin; settings: NIH units per 1 substrate unit
Method: (§1) As is evident from equation (2) constants Km and k3 determine the activity of the enzyme substrate for a given enzyme. For determining these constants the following procedure is followed:
(§2) The enzyme and the substrate are mixed in a buffer solution, and the reaction is followed spectrophotometrically for 2 to 30 minutes. The concentration of substrate [S] is varied, whereas the enzyme concentration [E] is kept constant. If the extinction (OD) (= optical density) is plotted in a co-ordinate system as a function of time, a curve is obtained the tangent of which (difference in extinction per minute, Δ OD/minute, from which the quantity in μmoles of pNA/min (v) can be calculated) at time zero corresponds to the ideal course of the hydrolysis. By means of this tangent the initial rate of the hydrolysis can be determined.
(§3) If 1/v is plotted against 1/[S], a Lineweaver-Burk diagram (cf. "Kurzes Lehrbuch der Biochemie" by P. KARSON, Georg Thieme-Verlag, Stuttgart, 1967, p. 70) is obtained from which vmax and Km can be determined graphically.
(§4) Km and k3 = vmax /E were determined with N^α-Bz-Pro-Phe-Arg-pNA^. HCl (i.e. the substrate prepared according to Example 1) for plasma kallikrein, trypsin, plasmin and thrombin.

plasmin [1] = molecular target: T1, plasmin (Homo sapiens, UniProt P00747); test: Activity of human plasmin measured with the substrates at constant substrate and enzyme concentrations; settings: split product
T1 sequence (P00747 581-810 limits assumed): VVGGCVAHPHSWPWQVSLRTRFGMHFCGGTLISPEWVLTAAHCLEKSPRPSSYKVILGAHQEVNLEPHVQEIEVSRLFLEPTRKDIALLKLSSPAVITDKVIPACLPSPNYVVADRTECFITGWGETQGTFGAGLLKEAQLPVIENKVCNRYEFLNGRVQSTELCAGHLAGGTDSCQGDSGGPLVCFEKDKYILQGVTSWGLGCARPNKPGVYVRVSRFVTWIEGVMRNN
T1 sequence (P00747 97-580 partner limits assumed): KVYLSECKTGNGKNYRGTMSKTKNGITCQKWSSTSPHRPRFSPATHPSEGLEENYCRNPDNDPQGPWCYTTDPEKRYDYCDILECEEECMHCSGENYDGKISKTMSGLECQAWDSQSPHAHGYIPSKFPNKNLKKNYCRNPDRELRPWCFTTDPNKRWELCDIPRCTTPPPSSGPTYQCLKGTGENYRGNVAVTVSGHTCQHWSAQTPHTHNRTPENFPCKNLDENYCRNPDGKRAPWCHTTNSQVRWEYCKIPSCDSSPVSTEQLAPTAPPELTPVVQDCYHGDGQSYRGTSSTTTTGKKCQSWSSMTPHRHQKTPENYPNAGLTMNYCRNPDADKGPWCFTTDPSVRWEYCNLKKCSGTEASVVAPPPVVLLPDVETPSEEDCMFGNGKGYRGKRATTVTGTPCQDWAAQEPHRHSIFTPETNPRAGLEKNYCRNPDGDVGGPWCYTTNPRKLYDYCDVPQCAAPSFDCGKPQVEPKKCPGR
Method: (§5) HCl, were used for the quantitative determination of various enzymes in blood plasma. The determination was carried out by taking advantage of the fact that the split product NH2 -R^2 formed by enzymatic hydrolysis of the substrate has a UV spectrum which differs from that of the substrate and is shifted toward higher wave lengths. Thus, N^α-Bz-Pro-Phe-Arg-pNA^.
(§6) The degree of the enzymatic hydrolysis of the substrate, which is proportional to the quantity of p-nitroaniline formed, can be easily determined by spectrophotometric measurement at 405 nm. […] The conditions are practically the same for the other substrates carrying a p-nitroanilino group as a chromogenic group. The spectrophotometric measurement was, therefore, carried out in all cases at 405 nm.

[2] = molecular target: T2, prothrombin activator from venom of the snake Echis carinatus (Echis carinatus, UniProt Q90495); test: Activity of prothrombin activator measured with substrates at a constant substrate concentration
T2 sequence (Q90495 191-616): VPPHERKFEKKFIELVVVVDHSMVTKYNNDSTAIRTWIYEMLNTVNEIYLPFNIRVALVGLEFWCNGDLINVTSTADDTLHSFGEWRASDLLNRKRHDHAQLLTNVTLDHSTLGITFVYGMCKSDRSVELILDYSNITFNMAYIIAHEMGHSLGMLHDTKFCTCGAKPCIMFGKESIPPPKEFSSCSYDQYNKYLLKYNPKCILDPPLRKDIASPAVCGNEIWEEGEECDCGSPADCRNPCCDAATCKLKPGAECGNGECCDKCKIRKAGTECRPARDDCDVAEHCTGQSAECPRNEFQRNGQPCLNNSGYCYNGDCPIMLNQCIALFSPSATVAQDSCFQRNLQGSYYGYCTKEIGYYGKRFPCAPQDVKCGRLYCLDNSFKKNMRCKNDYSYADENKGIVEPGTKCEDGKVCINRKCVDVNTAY
Description: (§7) The degree of the enzymatic hydrolysis of the substrate, which is proportional to the quantity of p-nitroaniline formed, can be easily determined by spectrophotometric measurement at 405 nm. The presence of an excess of substrate exerts no disturbing effect on the measurement at 405 nm. The conditions are practically the same for the other substrates carrying a p-nitroanilino group as a chromogenic group. The spectrophotometric measurement was, therefore, carried out in all cases at 405 nm.
(§8) Activity of papain and prothrombin activator, measured by means
(§9) Quantity in nm of p-nitroaniline (pNA) re-
(§10) leased within 1 minute by 0.1 milli-Anson
(§11) unit^3) of papain and 10 μg of a pure fraction
of the prothrombin activator from venom of
the snake Echis carinatus
^2) The prothrombin activator is a serine-protease which was isolated
from the venom of the snake Echis carinatus.

plasma kallikrein [3] = molecular target: T3, plasma kallikrein (Homo sapiens, UniProt P03952); test: Activity of plasma kallikrein measured with the substrates at constant substrate and enzyme concentrations; settings: split product
T3 sequence (P03952 391-638 limits assumed, species assumed): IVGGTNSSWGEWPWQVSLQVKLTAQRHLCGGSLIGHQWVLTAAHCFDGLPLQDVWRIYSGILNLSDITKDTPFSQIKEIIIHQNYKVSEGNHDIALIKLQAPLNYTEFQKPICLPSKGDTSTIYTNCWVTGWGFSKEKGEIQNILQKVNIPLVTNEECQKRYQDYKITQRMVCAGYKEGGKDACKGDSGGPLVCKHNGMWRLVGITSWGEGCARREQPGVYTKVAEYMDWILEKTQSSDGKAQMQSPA
T3 sequence (P03952 20-390 partner limits assumed, species assumed): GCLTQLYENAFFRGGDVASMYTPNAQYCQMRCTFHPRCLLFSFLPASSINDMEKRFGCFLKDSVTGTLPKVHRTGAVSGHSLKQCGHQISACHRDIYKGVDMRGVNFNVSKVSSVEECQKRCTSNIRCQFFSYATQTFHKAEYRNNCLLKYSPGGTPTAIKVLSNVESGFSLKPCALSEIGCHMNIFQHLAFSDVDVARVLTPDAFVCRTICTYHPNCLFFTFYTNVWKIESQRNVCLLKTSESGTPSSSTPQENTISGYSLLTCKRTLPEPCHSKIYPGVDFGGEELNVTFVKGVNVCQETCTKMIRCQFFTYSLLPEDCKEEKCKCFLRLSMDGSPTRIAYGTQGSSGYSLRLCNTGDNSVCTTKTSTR
Method: as §5, §6

plasma kallikrein [4] = molecular target: T3, plasma kallikrein; test: Km and vmax determination with substrate (Lineweaver-Burk), plasma kallikrein; settings: common units per 1 substrate unit
Method: as §1, §2, §3, §4

plasmin [5] = molecular target: T1, plasmin; test: Km and vmax determination with substrate (Lineweaver-Burk), plasmin; settings: casein units per 1 substrate unit
Method: as §1, §2, §3, §4

trypsin = molecular target: T4, trypsin (Bos taurus, UniProt P00760); test: Km and vmax determination with substrate (Lineweaver-Burk), trypsin; settings: NF units per 1 substrate unit
T4 sequence (P00760 24-246): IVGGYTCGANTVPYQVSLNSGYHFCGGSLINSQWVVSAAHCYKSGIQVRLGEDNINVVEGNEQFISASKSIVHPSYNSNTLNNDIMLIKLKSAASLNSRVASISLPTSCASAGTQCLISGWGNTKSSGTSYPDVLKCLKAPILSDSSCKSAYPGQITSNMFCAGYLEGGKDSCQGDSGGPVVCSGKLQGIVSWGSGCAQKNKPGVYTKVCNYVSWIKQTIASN
Method: as §1, §2, §3, §4

papain = molecular target: T5, papain (Carica papaya, UniProt P00784); test: Activity of papain measured with substrates at a constant substrate concentration
T5 construct: from tissue; host or cells: latex of the Carica papaya fruit
T5 sequence (P00784 134-345): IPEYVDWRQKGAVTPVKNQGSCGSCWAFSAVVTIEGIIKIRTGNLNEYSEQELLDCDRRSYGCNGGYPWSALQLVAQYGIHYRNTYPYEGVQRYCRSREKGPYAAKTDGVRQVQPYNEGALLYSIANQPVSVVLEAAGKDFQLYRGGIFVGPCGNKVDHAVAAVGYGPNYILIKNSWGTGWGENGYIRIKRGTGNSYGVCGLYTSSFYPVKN
Description: as §7, §8, §9, §10, §11
^1) Papain is a cysteine-protease isolated from the latex of the gree
^3) One Anson unit is the enzyme quantity which releases 1 mmole of
folin-positive amino acids (calculated as tyrosine) in 1 minute (cf. Art.

SMILES	relation between substrate units and common units (1 U = x) (thrombin)	Quantity of p-nitroaniline (pNA), β-naphthylamine (2-NA) or 4-methoxy-β-naphthylamine (4-MeO-2-NA) released within 1 minute by one C unit of human plasmin (plasmin [1])	Quantity of p-nitroaniline (pNA) released within 1 minute by 10 μg of a pure fraction of the prothrombin activator from venom of Echis carinatus [2]	Quantity of p-nitroaniline (pNA), β-naphthylamine (2-NA) or 4-methoxy-β-naphthylamine (4-MeO-2-NA) released within 1 minute by 1 BAEE unit of plasma kallikrein (plasma kallikrein [3])	relation between substrate units and common units (1 U = x) (plasma kallikrein [4])	relation between substrate units and common units (1 U = x) (plasmin [5])	relation between substrate units and common units (1 U = x) (trypsin)	Quantity of p-nitroaniline (pNA) released within 1 minute by 0.1 milli-Anson unit of papain (papain)
N=C(N)NCCC[C@H](NC(=O)[C@H](Cc1ccccc1)NC(=O)[C@@H]1CCCN1C(=O)c1ccccc1)C(=O)Nc1ccc([N+](=O)[O-])cc1 [Substrate I, N^α-Bz-Pro-Phe-Arg-pNA^. HCl] (Bz-Pro-Phe-Arg-pNA)	117600 NIH	152.0 nm	13.1 nm	135.5 nm	4.8 BAEE U	518 C U	12000 NF	
N=C(N)NCCC[C@H](NC(=O)[C@H](Cc1ccccc1)NC(=O)[C@@H]1CCCN1C(=O)CCc1ccccc1)C(=O)Nc1ccc([N+](=O)[O-])cc1 [Substrate VII, N^α -3-Phenyl-propionyl-Pro-Phe-Arg-pNA.HCl] (Hydrocinnamoyl-Pro-Phe-Arg-pNA)		144.0 nm		256.0 nm				24.9 nm
